This is an account of results in patent US20210386367A1, “DEVICES AND SYSTEMS FOR GASTROINTESTINAL MICROBIOME DETECTION AND MANIPULATION” (Progenity, Inc., priority 2018, published 2021).

In assay [1] the test system is Streptococcus spp. spontaneous mutants. Kind of assay: organism not typed. The class given is cell-based. The procedure: Select isolates were subcultured onto agar containing drug at the selection concentration, were identified by MALDI, and were frozen for broth microdilution MIC testing as described below.
To determine whether colonies growing on drug selection plates had elevated MIC values to the selecting antibiotic, susceptibility testing by broth microdilution was conducted on isolated mutants following methodology recommended by CLSI (1), (2), and (3) “Performance Standards for Antimicrobial Susceptibility Testing; Twenty-Eighth Informational Supplement.,” CLSI document M100-S28, 2018.
All wells in columns 2 through 12 of a standard 96-well microdilution plate (Costar 3795) were filled with 150 μL of the appropriate diluent. Then, 300 μL of the test agents were added to the wells of column 1 of the plates at […] the highest final concentration to be tested. Serial two-fold dilutions were made across the rows through column 11 using the Biomek 2000. The wells of column 12 contained no drug and served as the growth control wells. This plate served as the “mother plate” from which selected MIC assay plates or “daughter plates” were made.
2 μL of drug solution from each well of a mother plate was added to each corresponding well of the daughter plate in a single step. A standardized inoculum of each aerobic test organism was prepared per CLSI methods to equal a 0.5 McFarland standard, followed by a dilution of 1:20 in MHB II. The plates were then inoculated with 10 μL of the diluted inoculum using the Biomek 2000 from low to high drug concentration, resulting in a final concentration of approximately 5×10^5 CFU/mL. An un-inoculated plate was incubated for the purpose of assessing solubility of the drug in the test media.
The plates for the aerobic tests were stacked 3-4 high, covered with a sterile lid on the top plate, and incubated aerobically at 35° C. for 18-20 hr. The MIC was recorded as the lowest concentration of drug that inhibited visible growth of the organism.

Assay [2] has the same test system. To be noted: S. pneumoniae ATCC 49619; CLSI QC range shown in parentheses; cited from earlier work.
The subject of assay [3] is Enterococcus faecalis clinical isolates. Nature of the assay: MIC distribution against clinical isolates. The class given is cell-based. To be noted: 50 E. faecalis isolates. An excerpt:
(§1) As used herein, “minimum inhibitory concentration” or “MIC” refers to the lowest concentration of an antimicrobial agent, for example, an antimicrobial agent as described herein, required to inhibit the growth of an organism.
(§2) Many susceptibility testing methods are known in the art and can be used as described herein (see, e.g., Jorgensen and Ferraro (2009) Clinical Infectious Diseases 49:1749-1755; and Maurer et al. (2017) Infectious Disease Reports 9:6839; the entire contents of each of the foregoing are incorporated herein by reference). For example, antimicrobial susceptibility can be determined using conventional culture based methods such as the broth or agar dilution test. In these dilution tests, the bacterial isolate of interest is inoculated onto different media that include serial dilutions of an antimicrobial agent, and incubated under appropriate conditions (e.g., overnight at 37° C.) to allow for growth to occur. Following the incubation period, the media is examined to determine bacterial growth. The lowest concentration of antibiotic that prevents growth represents the minimal inhibitory concentration (MIC). Broth dilution tests can be miniaturized and mechanized allowing for reproducibility and high throughput.

Assay [4] has as its system Staphylococcus aureus clinical isolates. Kind of assay: MIC distribution against clinical isolates. The class given is cell-based. To be noted: 50 S. aureus isolates.
From the text: as §1, §2

Assay [5] relates to Enterococcus faecalis. Nature of the assay: Broth microdilution MIC, 50 clinical isolates. The class given is cell-based. How it is done:
(§3) Minimal inhibitory concentration (MIC) values were determined by broth microdilution or agar dilution in accordance with guidelines from the Clinical and Laboratory Standards Institute (CLSI; (1) “Methods for Dilution Antimicrobial Susceptibility Tests for Bacteria That Grow Aerobically; Approved Standard; 11th ed.” CLSI standard M07-A11, 2018; (2) “Performance Standards for Antimicrobial Susceptibility Testing; Twenty-Eighth Informational Supplement,” CLSI document M100-S28, 2018; and (3) “Methods for Antimicrobial Susceptibility Testing of Anaerobic Bacteria; Approved Standard—Eighth Edition,” CLSI document M11-A8, 2012).
(§4) Tested aerobically by broth microdilution: • Escherichia coli, n=50 • Klebsiella spp., n=50 • Pseudomonas aeruginosa, n=50 • Streptococcus spp., n=50 • Staphylococcus aureus, n=50 • Enterococcus faecalis, n=50 • Enterobacter aerogenes, n=50 • Proteus mirabilis, n=50
(§5) Broth microdilution testing of aerobic bacteria was conducted in cation-adjusted Mueller Hinton broth (MHBII). For testing streptococci, lysed horse blood (LHB) was added to MHBII broth at a final concentration of 3%. Where LHB was used, it was added after filtering.
(§6) Broth microdilution susceptibility testing in 96-well microplates was conducted in accordance with CLSI methods (1) and (2). Automated liquid handlers were used to conduct serial dilutions and liquid transfers, including the Multidrop 384 (Labsystems, Helsinki, Finland), Biomek 2000, and the Biomek FX (Beckman Coulter, Fullerton, Calif.). All wells in columns 2 through 12 of a standard 96-well microdilution plate (Costar 3795) were filled with 150 μL of the appropriate diluent. Then, 300 μL of the test agents were added to the wells of column 1 of the plates at 100× the highest final concentration to be tested. Serial two-fold dilutions were made across the rows through column 11 using the Biomek 2000. The wells of column 12 contained no drug and served as the growth control wells. This plate served as the “mother plate” from which MIC assay plates or “daughter plates” were made.
(§7) The daughter plates were loaded with 190 μL per well of the appropriate medium using the Multidrop 384. The daughter plates were created using the Biomek FX which transferred 2 μL of drug solution from each well of a mother plate to each corresponding well of the daughter plate in a single step. A standardized inoculum of each test organism was prepared per CLSI methods (1) to equal a 0.5 McFarland standard, followed by a dilution of 1:20 for aerobes and 1:10 for anaerobes. The plates were then inoculated with 10 μL of the diluted inoculum using the Biomek 2000 from low to high drug concentration, resulting in a final concentration of approximately 5×10^5 CFU/mL per well. An un-inoculated plate was incubated in parallel for each medium for the purpose of assessing solubility of the drug in the test media.
(§8) Inoculated plates were stacked 3 or 4 high, covered with a sterile lid on the top plate, placed into boxes with CO2 planchets (streptococci) or plastic bags (all other isolates). Plates were incubated at 35° C. for 16-24 hr in ambient air for aerobes or for 42-48 hr in the anaerobic environment of the Bactron II anaerobe chamber (Sheldon Manufacturing Co.; Cornelius, Oreg.). Following incubation, the microplates were removed from the incubator and viewed from the bottom using a plate viewer. The MIC values were read and recorded as the lowest concentration of drug that inhibited visible growth of the organism as per CLSI methods (1) and (2).
For orientation: Dilution methods test growth across graded concentrations, often in twofold steps.

Assay [6] deals with Staphylococcus aureus. Nature of the assay: Broth microdilution MIC, 50 clinical isolates (28 MRSA). The format is cell-based. The procedure:
as §3, §4, §5, §6, §7, §8

The structures appear in SMILES notation. Converted amounts (≈) assume the structure as drawn.

What is called MIC is the least concentration at which growth counts as inhibited. Regarding `CC[C@H]1OC(=O)[C@H](C)[C@@H](O[C@H]2C[C@@](C)(OC)[C@@H](O)[C@H](C)O2)[C@H](C)[C@@H](O[C@@H]2O[C@H](C)C[C@H](N(C)C)[C@H]2O)[C@](C)(O)C[C@@H](C)CN(C)[C@H](C)[C@@H](O)[C@]1(C)O` [AZI], the MIC in assay [1] (S. agaloctiae ATCC 13813, selected on rifaximin 4X MIC, Colony A) turned out to be 0.015 µg/mL (≈ 0.02 µM); in assay [1] (S. agaloctiae ATCC 13813, selected on rifaximin 4X MIC, Colony B) it was 0.015 µg/mL (≈ 0.02 µM); in assay [1] (S. agaloctiae ATCC 13813, selected on rifaximin 8X MIC, Colony A) it was 0.015 µg/mL (≈ 0.02 µM); in assay [1] (S. agaloctiae ATCC 13813, selected on rifaximin 8X MIC, Colony B) it was 0.015 µg/mL (≈ 0.02 µM); in assay [1] (S. agaloctiae ATCC 13813 Parent), 0.015 µg/mL (≈ 0.02 µM); in assay [1] (S. pneumoniae ATCC 49619, selected on rifaximin 4X MIC, Colony A), 0.03 µg/mL (≈ 0.0401 µM). In addition, the MIC in assay [1] (S. pneumoniae ATCC 49619, selected on rifaximin 4X MIC, Colony B) stood at 0.03 µg/mL (≈ 0.0401 µM); in assay [1] (S. pneumoniae ATCC 49619, selected on rifaximin 8X MIC, Colony A), 0.03 µg/mL (≈ 0.0401 µM); in assay [1] (S. pneumoniae ATCC 49619, selected on rifaximin 8X MIC, Colony B) it was 0.03 µg/mL (≈ 0.0401 µM); in assay [1] (S. pneumoniae ATCC 49619 Parent), 0.06 µg/mL (≈ 0.0801 µM); in assay [1] (S. pyogenes ATCC 49399, selected on rifaximin 4X MIC, Colony A) it was 0.06 µg/mL (≈ 0.0801 µM); in assay [1] (S. pyogenes ATCC 49399, selected on rifaximin 4X MIC, Colony B) it was 0.06 µg/mL (≈ 0.0801 µM). The minimum inhibitory concentration (MIC) in assay [1] (S. pyogenes ATCC 49399, selected on rifaximin 8X MIC, Colony A) amounted to 0.06 µg/mL (≈ 0.0801 µM); in assay [1] (S. pyogenes ATCC 49399, selected on rifaximin 8X MIC, Colony B), 0.06 µg/mL (≈ 0.0801 µM); in assay [1] (S. pyogenes ATCC 49399 Parent), 0.03 µg/mL (≈ 0.0401 µM). The “MIC, CLSI QC range” value in assay [2] is recorded as “(0.06-0.25) μg/mL”.

As a reminder, the MIC50 is the lowest concentration that inhibits either 50% of growth or 50% of the strains tested, depending on the study. In general, MIC90 refers to the lowest concentration that inhibits either 90% of growth or 90% of the strains tested, depending on the study. In the case of `Cc1onc(-c2ccccc2)c1C(=O)N[C@@H]1C(=O)N2[C@@H]1SC(C)(C)[C@@H]2C(=O)O` [oxacillin, Oxacillin], the “Cumulative percentage of isolates inhibited at MIC” value in assay [3] (MIC 2 μg/mL) is listed as 2.0%; in assay [3] (MIC 8 μg/mL) it was 16.0%; in assay [3] (MIC 16 μg/mL) it was 54.0%; in assay [3] (MIC >16 μg/mL), 100.0%; in assay [4] (MIC 0.5 μg/mL), 28.0%; in assay [4] (MIC 1 μg/mL) it was 42.0%. Further, the “Cumulative percentage of isolates inhibited at MIC” value in assay [4] (MIC 2 μg/mL) worked out at 44.0%; in assay [4] (MIC 4 μg/mL), 48.0%; in assay [4] (MIC 8 μg/mL), 50.0%; in assay [4] (MIC >16 μg/mL) it was 100.0%; in assay [4] (MIC […]) it was 8.0%. Moreover, the “Number of test isolates at MIC” value in assay [3] (MIC 2 μg/mL) was 1; in assay [3] (MIC 8 μg/mL), 7; in assay [3] (MIC 16 μg/mL), 19; in assay [3] (MIC >16 μg/mL) it was 23; in assay [4] (MIC 0.5 μg/mL) it was 10; in assay [4] (MIC 1 μg/mL) it was 7. Besides, the “Number of test isolates at MIC” value in assay [4] (MIC 2 μg/mL) is 1; in assay [4] (MIC 4 μg/mL) it was 2; in assay [4] (MIC 8 μg/mL), 1; in assay [4] (MIC >16 μg/mL) it was 25; in assay [4] (MIC […]), 4. Besides, the Mode in assay [5] and in assay [6] was greater than 16 µg/mL in each case. Further, the MIC50 in assay [5] (Enterococcus faecalis, read-out: MIC50) worked out at 16 µg/mL (≈ 39.9 µM); in assay [6] (Staphylococcus aureus, read-out: MIC50) it was 8 µg/mL (≈ 19.9 µM). Further, the MIC90 is greater than 16 µg/mL in assay [5] (Enterococcus faecalis, read-out: MIC90) and greater than 16 µg/mL in assay [6] (Staphylococcus aureus, read-out: MIC90). Moreover, the “% R” value in assay [6] worked out at 56%. Moreover, the “% S” value in assay [6] worked out at 44%.
